Patent US6831084B1, “Branched adamantyl and noradamantyl aryl- and aralkylpiperazines with serotonin 5-HT1A activity” (Wyeth, priority 1999, dated 2004)
Structures can show the parent of a compound that is named as a salt.

Assays:
[1] = molecular target: T1, serotonin 5-HT1A receptor (Rattus norvegicus, UniProt P19327); assay: Displacement of [3H]-8-OH-DPAT from 5-HT1A receptor in rat hippocampal membrane homogenates; format: binding; conditions: [3H]-8-OH-DPAT displacement, read-out: 5-HT1A Affinity (IC50)
T1 construct: in rat hippocampal membrane homogenates; from tissue; host or cells: rat hippocampus (membrane homogenates)
T1 sequence (P19327 1-422): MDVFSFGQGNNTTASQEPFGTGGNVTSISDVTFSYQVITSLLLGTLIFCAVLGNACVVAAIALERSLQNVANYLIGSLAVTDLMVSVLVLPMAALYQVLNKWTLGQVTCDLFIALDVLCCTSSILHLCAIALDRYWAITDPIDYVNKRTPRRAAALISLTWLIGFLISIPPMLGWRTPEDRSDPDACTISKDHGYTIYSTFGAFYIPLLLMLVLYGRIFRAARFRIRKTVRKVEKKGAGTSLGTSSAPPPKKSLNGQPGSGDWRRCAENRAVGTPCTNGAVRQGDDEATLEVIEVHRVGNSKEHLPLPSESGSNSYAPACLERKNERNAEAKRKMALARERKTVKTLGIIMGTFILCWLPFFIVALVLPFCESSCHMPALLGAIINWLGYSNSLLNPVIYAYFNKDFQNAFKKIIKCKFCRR
Source text: Affinity for the serotonin 5-HT1A receptor was established by assaying the test compound's ability to displace [^3H]-8-OH-DPAT from its binding site on the receptor complex in rat hippocampal membrane homogenates according to the method described in U.S. Pat. No. 5,482,940.

human 5-HT1A receptor [2] = molecular target: T2, human 5-HT1A receptor (Homo sapiens, UniProt P08908); assay: Stimulation of [35S]-GTPγS binding (5-HT1A agonist activity) in CHO cells stably transfected with human 5-HT1A receptor; format: biochemical; conditions: for 5-HT1A Agonist Activity (GTPγS) % Agonist Activity: relative to the effect of the 5-HT1A full agonist 8-OH-DPAT
T2 construct: expressed in transfected cells; host or cells: CHO cells, stably transfected
T2 sequence (P08908 1-422): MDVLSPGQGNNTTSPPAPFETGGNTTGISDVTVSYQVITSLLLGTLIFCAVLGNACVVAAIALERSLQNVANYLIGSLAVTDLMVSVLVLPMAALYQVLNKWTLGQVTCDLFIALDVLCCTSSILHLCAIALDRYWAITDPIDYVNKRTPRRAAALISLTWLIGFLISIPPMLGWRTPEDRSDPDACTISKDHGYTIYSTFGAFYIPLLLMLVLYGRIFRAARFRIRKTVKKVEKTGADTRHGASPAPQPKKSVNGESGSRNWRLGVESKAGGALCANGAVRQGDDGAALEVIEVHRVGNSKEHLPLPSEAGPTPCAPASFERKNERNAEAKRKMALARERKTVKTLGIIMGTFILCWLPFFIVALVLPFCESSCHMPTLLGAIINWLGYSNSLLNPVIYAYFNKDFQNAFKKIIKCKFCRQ
Source text: Data are presented as the percent of
agonist activity observed relative to the effect obtained with the 5-HT1A full agonist 8-OH-DPAT and the corresponding EC50 value.

human 5-HT1A receptor [3] = molecular target: T2, human 5-HT1A receptor; assay: Block of 8-OH-DPAT-induced stimulation of [35S]-GTPγS binding (5-HT1A antagonist activity) in CHO cells stably transfected with human 5-HT1A receptor; format: biochemical; conditions: block of 8-OH-DPAT-induced [35S]-GTPγS binding

Row | EC50 (human 5-HT1A receptor [2]) [nM] | Compound | melting point [°C] | IC50 [1] [nM] | 5-HT1A Agonist Activity (GTPγS) % Agonist Activity (human 5-HT1A receptor [2]) [%] | other results
1 | – | O=C(N[C@H](Cc1ccccc1)CN1CCN(c2ncccn2)CC1)C12CC3CC(CC(C3)C1)C2 (hydrate or solvate) [Example 3, (R)-N-[1-(Phenylmethyl)-2-[4-(2-pyrimidinyl)-1-piperazinyl]ethyl]tricyclo[3.3.1.1^3,7)]-decane-1-carboxamide Hemihydrate] | 172 to 175 | – | – | –
2 | 77 | Cl.Cl.O.O.O=C(N[C@@H](COCc1ccccc1)CN1CCN(Cc2ccccc2)CC1)C12CC3CC(CC(C3)C1)C2 [Example 5, (R)-N-[1-((Phenylmethoxy)methyl)-2-[4-(phenylmethyl)-1-piperazinyl]ethyl]tricyclo-[3.3.1.1^3,7)]-decane-1-carboxamide Dihydrochloride Dihydrate] | – | 62 | – | –
3 | – | O=C(N[C@H](Cc1ccccc1)CN1CCN(Cc2ccccc2)CC1)C12CC3CC(CC(C3)C1)C2 [Example 1, (R)-N-[1-(Phenylmethyl)-2-[4-(phenylmethyl)-1-piperazinyl]ethyl]tricyclo[3.3.1.1^3,7)]-decane-1-carboxamide Dihydrochloride Dihydrate] | – | 2.3 | – | 5-HT1A Antagonist Activity (GTPγS) % Antagonist Activity (human 5-HT1A receptor [3]): 100%; EC50 (human 5-HT1A receptor [3]): 36 nM
4 | – | Cl.Cl.O.O.O=C(N[C@@H](COCc1ccccc1)CN1CCN(Cc2ccccc2)CC1)C12CC3CC(CC(C3)C1)C2 [Example 5] | – | – | 49 | –
5 | 2 | O=C(N[C@H](Cc1ccccc1)CN1CCN(c2ncccn2)CC1)C12CC3CC(CC(C3)C1)C2 [Example 3, (R)-N-[1-(Phenylmethyl)-2-[4-(2-pyrimidinyl)-1-piperazinyl]ethyl]tricyclo[3.3.1.1^3,7)]-decane-1-carboxamide Hemihydrate] | – | 0.43 | 100 | –
6 | 2.4 | O=C(N[C@@H](Cc1ccccc1)CN1CCN(c2ncccn2)CC1)C12CC3CC(CC(C3)C1)C2 [Example 4] | 172 to 175 | 1 | 99 | –
7 | – | O=C(N[C@@H](Cc1ccccc1)CN1CCN(Cc2ccccc2)CC1)C12CC3CC(CC(C3)C1)C2 (as salt: hydrochloride) (hydrate or solvate) [Example 2, (S)-N-[1-(Phenylmethyl)-2-[4-(phenylmethyl)-1-piperazinyl]ethyl]tricyclo[3.3.1.1^3,7)]-decane-1-carboxamide Dihydrochloride Dihydrate] | 263 to 266 | – | – | –
8 | – | COc1ccccc1N1CCN(C[C@H](Cc2ccccc2)NC(=O)C23CC4CC(CC(C4)C2)C3)CC1.COc1ccccc1N1CCN(C[C@H](Cc2ccccc2)NC(=O)C23CC4CC(CC(C4)C2)C3)CC1.O.O.O=C(O)/C=C/C(=O)O [Example 7, (S)-Adamantane-1-carboxylic acid [1-(phenylmethyl)-2-[4-(2-methoxyphenyl)-piperazinyl]ethyl]-amide Hemifumarate Hydrate] | – | 0.7 | 85 | –
9 | – | O=C(N[C@H](Cc1ccccc1)CN1CCN(Cc2ccccc2)CC1)C12CC3CC(CC(C3)C1)C2 (as salt: hydrochloride) (hydrate or solvate) [Example 1, (R)-N-[1-(Phenylmethyl)-2-[4-(phenylmethyl)-1-piperazinyl]ethyl]tricyclo[3.3.1.1^3,7)]-decane-1-carboxamide Dihydrochloride Dihydrate] | 261 to 263 | – | – | –
10 | – | COc1ccccc1N1CCN(C[C@@H](Cc2ccccc2)NC(=O)C23CC4CC(CC(C4)C2)C3)CC1.COc1ccccc1N1CCN(C[C@@H](Cc2ccccc2)NC(=O)C23CC4CC(CC(C4)C2)C3)CC1.O.O=C(O)/C=C/C(=O)O [Example 6, (R)-Adamantane-1-carboxylic acid [1-(phenylmethyl)-2-[4-(2-methoxyphenyl)-piperazinyl]ethyl]-amide Hemifumarate Hemihydrate] | – | 0.21 | 76 | –

Row | Compound | EC50 (human 5-HT1A receptor [2]) [nM] | melting point [°C] | IC50 [1] [nM] | 5-HT1A Agonist Activity (GTPγS) % Agonist Activity (human 5-HT1A receptor [2]) [%] | other results
11 | O=C(N[C@@H](Cc1ccccc1)CN1CCN(Cc2ccccc2)CC1)C12CC3CC(CC(C3)C1)C2 [Example 2, (S)-N-[1-(Phenylmethyl)-2-[4-(phenylmethyl)-1-piperazinyl]ethyl]tricyclo[3.3.1.1^3,7)]-decane-1-carboxamide Dihydrochloride Dihydrate] | 21 | – | 0.7 | 51 | –
